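Protocol summary: plate cells (96-well), add compound at 5 concentrations, incubate 48 h, interpolate endpoints linearly. TGI marks complete inhibition of growth.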
How the values were obtained:
Experiment in all cases: growth of human tumour cells (NCI), 48 h
ACHN renal = tested on: ACHN renal
HCT-15 colon = tested on: HCT-15 colon
HOP-92 NSCLC = tested on: HOP-92 NSCLC
HT29 colon = tested on: HT29 colon
KM12 colon = tested on: KM12 colon
MCF7 breast = tested on: MCF7 breast
MDA-MB-435 = tested on: MDA-MB-435
MOLT-4 leukemia = tested on: MOLT-4 leukemia
NCI-H226 lung = tested on: NCI-H226 lung
NCI-H23 lung = tested on: NCI-H23 lung
NCI-H460 lung = tested on: NCI-H460 lung
NCI-H522 lung = tested on: NCI-H522 lung
OVCAR-3 ovarian = tested on: OVCAR-3 ovarian
PC-3 prostate = tested on: PC-3 prostate
RPMI-8226 leukemia = tested on: RPMI-8226 leukemia
SF-295 CNS = tested on: SF-295 CNS
UACC-62 melanoma = tested on: UACC-62 melanoma
UO-31 renal = tested on: UO-31 renal
RXF 393 renal = tested on: RXF 393 renal
SK-MEL-2 melanoma = tested on: SK-MEL-2 melanoma

| SMILES | TGI (ACHN renal) | TGI (HCT-15 colon) | TGI (HOP-92 NSCLC) | TGI (HT29 colon) | TGI (KM12 colon) | TGI (MCF7 breast) | TGI (MDA-MB-435) | TGI (MOLT-4 leukemia) | TGI (NCI-H226 lung) | TGI (NCI-H23 lung) | TGI (NCI-H460 lung) | TGI (NCI-H522 lung) | TGI (OVCAR-3 ovarian) | TGI (PC-3 prostate) | TGI (RPMI-8226 leukemia) | TGI (SF-295 CNS) | TGI (UACC-62 melanoma) | TGI (UO-31 renal) | TGI (RXF 393 renal) | TGI (SK-MEL-2 melanoma) |
| --- | --- | --- | --- | --- | --- | --- | --- | --- | --- | --- | --- | --- | --- | --- | --- | --- | --- | --- | --- | --- |
| Cc1c2n(c3ccccc13)S(=O)(=O)c1ccccc1-2 | 43 µM | > 100 µM | 73.6 µM | 35.6 µM | > 100 µM | > 100 µM | > 100 µM | > 100 µM | > 100 µM | > 100 µM | > 100 µM | > 100 µM | > 100 µM | 61.3 µM | > 100 µM | 53.2 µM | > 100 µM | 41.6 µM |  |  |
| CCOc1ccccc1NC(=O)C(=O)C(/C(=N/N)C(=O)OC)c1nc2ccc([N+](=O)[O-])cc2[nH]c1=O (stereo not drawn) |  | > 100 µM | > 100 µM | > 100 µM | > 100 µM | > 100 µM | > 100 µM | > 100 µM | > 100 µM |  | > 100 µM | > 100 µM | > 100 µM | > 100 µM | > 100 µM | > 100 µM | > 100 µM |  | > 100 µM | > 100 µM |
| O=C1NC(N2CCCC(CO)C2)=N/C1=C\c1ccccc1 (stereo not drawn) | > 100 µM | > 100 µM | > 100 µM | > 100 µM | > 100 µM | > 100 µM | > 100 µM | > 100 µM | > 100 µM | > 100 µM |  | > 100 µM | > 100 µM | > 100 µM | > 100 µM | > 100 µM | > 100 µM | > 100 µM | > 100 µM | > 100 µM |
| COc1cc2cc(C(=O)N3CC(CCl)c4ccc([N+](C)(C)Cc5ccc([N+](=O)[O-])cc5)cc43)[nH]c2c(OC)c1OC (stereo not drawn) | 7.12 µM | 31 µM | 6.58 µM | 5.83 µM | 5.46 µM | > 100 µM | 24 µM | 6.44 µM | 15.4 µM | 3.52 µM | 4 µM | 3.47 µM | 7.16 µM | 16.3 µM | 4.62 µM | 15.3 µM | 4.69 µM |  | 3.09 µM | 5.26 µM |
| COc1ccc(C2C(C#N)=C(S)N(C3OC(COC(C)=O)C(OC(C)=O)C(OC(C)=O)C3OC(C)=O)C(C)=C2C(C)=O)cc1 (stereo not drawn) | > 100 µM | > 100 µM | > 100 µM | > 100 µM | > 100 µM | > 100 µM | > 100 µM | > 100 µM |  | > 100 µM | > 100 µM |  | > 100 µM | > 100 µM | > 100 µM | > 100 µM | > 100 µM | > 100 µM | > 100 µM | > 100 µM |
| Cn1c(=O)c2sc3c4sc5c(=O)n(C)c6ccccc6c5c4sc3c2c2ccccc21 | > 100 µM | > 100 µM | > 100 µM | > 100 µM | > 100 µM | > 100 µM | > 100 µM | > 100 µM | > 100 µM | > 100 µM | > 100 µM | > 100 µM | > 100 µM | > 100 µM | > 100 µM |  | > 100 µM | > 100 µM | 97.6 µM | > 100 µM |
| O=c1cc(-c2ccccc2)[nH]c2ccc(S)cc12 | 99.7 µM | 48 µM | 91.5 µM | 93.1 µM | > 100 µM | > 100 µM | 45.4 µM | 39.8 µM | 81.9 µM | > 100 µM | > 100 µM | 64.5 µM | > 100 µM | > 100 µM | > 100 µM | > 100 µM | > 100 µM |  | 68.2 µM |  |
| CN(C)C1(N(C)C)Oc2c(c(=O)n(C)c(=O)n2C)C(c2ccc(C(F)(F)F)cc2)C1(F)F (stereo not drawn) | > 100 µM | > 100 µM | > 100 µM |  | > 100 µM | > 100 µM | > 100 µM |  | > 100 µM | > 100 µM | > 100 µM |  | > 100 µM | > 100 µM | > 100 µM | > 100 µM | > 100 µM | > 100 µM | > 100 µM | > 100 µM |
| COC(=O)[C@H](Cc1ccccc1)NC(=O)N(CCC#N)CCCCN(CCC#N)C(=O)N[C@@H](Cc1ccccc1)C(=O)OC | > 100 µM | > 100 µM | > 100 µM |  | > 100 µM | > 100 µM | > 100 µM | > 100 µM | > 100 µM | > 100 µM | > 100 µM | > 100 µM | > 100 µM | > 100 µM | > 100 µM | > 100 µM | > 100 µM | > 100 µM | > 100 µM | > 100 µM |
| O=[N+]([O-])C1=Cc2cc(Cl)ccc2OC1c1cccc2ccccc12 (stereo not drawn) | 2.99 µM | 2.95 µM | 3 µM | 1.79 µM | 3.5 µM | 2.16 µM | 5.35 µM | 0.817 µM | 4.42 µM | 5.46 µM | 5.28 µM | 2.9 µM | 2.95 µM | 2.23 µM |  | 6.19 µM | 4.97 µM | 2.51 µM | 1.46 µM | 3.13 µM |
| COCCOC(=O)NCn1cc(-c2ccccc2)nn1 | > 100 µM | > 100 µM | > 100 µM | > 100 µM | > 100 µM | > 100 µM | > 100 µM | > 100 µM | > 100 µM | > 100 µM | > 100 µM | > 100 µM |  | > 100 µM | > 100 µM | > 100 µM |  |  |  | > 100 µM |
| Cc1c[nH]c(C(=O)O)c1-c1cccn1-c1ccc(Cl)cc1[N+](=O)[O-] | > 100 µM | > 100 µM | > 100 µM | > 100 µM | > 100 µM | > 100 µM | > 100 µM | > 100 µM | > 100 µM | > 100 µM | > 100 µM | > 100 µM | > 100 µM | > 100 µM |  | > 100 µM | > 100 µM | > 100 µM | > 100 µM | > 100 µM |

— PubChem BioAssay (NCI)
